How the values were obtained:
[1] = 83 kPa, Liquid; for speed of sound: Frequency=3 MHz, Single path-length method; for mass density: Vibrating tube method
[2] = molar heat capacity at constant pressure; details: 83 kPa, Liquid, DSC

CCCCCCCCC(=O)OCC(COC(=O)CCCCCCCC)(COC(=O)CCCCCCCC)COC(=O)CCCCCCCC [pentaerythritol tetranonanoate]
Details	mass density [kg/m3]	molar heat capacity at constant pressure [J/K/mol]	speed of sound [m/s]
[1], 283.15 K	961.49	–	1438.9
[1], 288.15 K	957.85	–	1421.7
[1], 293.15 K	954.2	–	1404.7
[1], 298.15 K	950.58	–	1387.9
[1], 303.15 K	946.97	–	1371.5
[1], 308.15 K	943.37	–	1355.2
[1], 313.15 K	939.77	–	1339.1
[1], 318.15 K	936.18	–	1323.2
[1], 323.15 K	932.6	–	1307.5
[1], 328.15 K	929.02	–	1292
[1], 333.15 K	925.45	–	1276.6
[1], 338.15 K	921.88	–	1261.4
[1], 343.15 K	918.32	–	1246.4
[2], 313.13 K	–	1352.3	–
[2], 314.13 K	–	1354.3	–
[2], 315.14 K	–	1355.7	–
[2], 316.13 K	–	1357.8	–
[2], 317.14 K	–	1359.9	–
[2], 318.13 K	–	1362	–
[2], 319.13 K	–	1363.4	–
[2], 320.14 K	–	1365.5	–
[2], 321.13 K	–	1367.6	–
[2], 322.13 K	–	1369	–
[2], 323.14 K	–	1371.1	–
[2], 324.13 K	–	1373.2	–
[2], 325.13 K	–	1374.6	–
[2], 326.13 K	–	1376.6	–
[2], 327.13 K	–	1378.7	–
[2], 328.14 K	–	1380.8	–
[2], 329.14 K	–	1382.9	–
[2], 330.13 K	–	1384.3	–
[2], 331.13 K	–	1386.4	–
[2], 332.13 K	–	1388.5	–
[2], 333.13 K	–	1390.6	–
[2], 334.13 K	–	1392.7	–
[2], 335.13 K	–	1394.8	–
[2], 336.14 K	–	1396.9	–
[2], 337.13 K	–	1399	–
[2], 338.13 K	–	1401	–
[2], 339.13 K	–	1403.1	–
[2], 340.13 K	–	1405.2	–
[2], 341.14 K	–	1406.6	–
[2], 342.14 K	–	1408.7	–
[2], 343.13 K	–	1410.8	–
[2], 344.13 K	–	1412.9	–
[2], 345.14 K	–	1415	–
[2], 346.13 K	–	1417.1	–
[2], 347.13 K	–	1419.2	–
[2], 348.13 K	–	1421.3	–
[2], 349.13 K	–	1423.4	–
[2], 350.14 K	–	1425.4	–
[2], 351.13 K	–	1427.5	–
[2], 352.13 K	–	1429.6	–
[2], 353.14 K	–	1431.7	–
[2], 354.13 K	–	1433.8	–
[2], 355.14 K	–	1435.9	–
[2], 356.13 K	–	1438	–
[2], 357.13 K	–	1440.1	–
[2], 358.13 K	–	1442.2	–
[2], 359.13 K	–	1444.3	–
[2], 360.13 K	–	1446.4	–
[2], 361.13 K	–	1448.4	–
[2], 362.13 K	–	1450.5	–
[2], 363.13 K	–	1452.6	–
[2], 364.13 K	–	1454.7	–
[2], 365.13 K	–	1456.8	–
[2], 366.13 K	–	1458.9	–
[2], 367.13 K	–	1461	–
[2], 368.13 K	–	1463.1	–
[2], 369.13 K	–	1465.2	–
[2], 370.13 K	–	1467.3	–
[2], 371.13 K	–	1469.4	–
[2], 372.13 K	–	1471.4	–
[2], 373.13 K	–	1473.5	–
[2], 374.14 K	–	1475.6	–
[2], 375.14 K	–	1477.7	–
[2], 376.13 K	–	1479.8	–
[2], 377.13 K	–	1481.9	–
[2], 378.13 K	–	1484	–
[2], 379.13 K	–	1486.1	–
[2], 380.14 K	–	1488.2	–
[2], 381.13 K	–	1491	–
[2], 382.13 K	–	1493.1	–
[2], 383.13 K	–	1495.1	–
[2], 384.13 K	–	1497.2	–
[2], 385.13 K	–	1499.3	–
[2], 386.13 K	–	1501.4	–
[2], 387.13 K	–	1503.5	–
[2], 388.13 K	–	1505.6	–
[2], 389.13 K	–	1507.7	–
[2], 390.13 K	–	1509.8	–
[2], 391.13 K	–	1511.9	–
[2], 392.13 K	–	1514	–
[2], 393.13 K	–	1516.1	–
[2], 394.13 K	–	1518.1	–
[2], 395.14 K	–	1520.2	–
[2], 396.13 K	–	1523	–
[2], 397.13 K	–	1525.1	–
[2], 398.13 K	–	1527.2	–
[2], 399.13 K	–	1529.3	–
[2], 400.13 K	–	1531.4	–
[2], 401.13 K	–	1533.5	–
[2], 402.14 K	–	1535.6	–
[2], 403.13 K	–	1537.7	–
[2], 404.14 K	–	1539.8	–
[2], 405.13 K	–	1541.8	–
[2], 406.13 K	–	1543.9	–
[2], 407.13 K	–	1546	–
[2], 408.13 K	–	1548.1	–
[2], 409.13 K	–	1550.9	–
[2], 410.14 K	–	1553	–
[2], 411.13 K	–	1554.4	–
[2], 412.14 K	–	1557.2	–

— the NIST ThermoML archive (doi:10.1021/acs.jced.8b00358)
